Assay: xn = mol fraction of the nth substance listed

Clc1cccc2ccccc12 + CO
viscosity [mPa·s], 101.33 kPa
Settings	x1 = 0.0998	x1 = 0.1992	x1 = 0.302	x1 = 0.4003	x1 = 0.4961	x1 = 0.5978	x1 = 0.6961	x1 = 0.801	x1 = 0.8922
298.15 K	0.814	1.096	1.372	1.617	1.847	2.064	2.237	2.454	2.67
303.15 K	0.75	1.002	1.249	1.468	1.672	1.863	2.012	2.197	2.385
308.15 K	0.689	0.918	1.142	1.336	1.516	1.683	1.818	1.984	2.157

N#CCCCCC#N + CS(C)=O
303.15 K, 101.33 kPa
Settings	viscosity [mPa·s]
x1 = 0.1031	2.027
x1 = 0.2999	2.489
x1 = 0.4015	2.76
x1 = 0.5024	3.06
x1 = 0.5947	3.343
x1 = 0.6945	3.682
x1 = 0.8441	4.243

C=CC(=O)OCC + CCCCCCCO
viscosity [mPa·s], 101.3 kPa
Settings	x1 = 0.0736	x1 = 0.1906	x1 = 0.2456	x1 = 0.3599	x1 = 0.4687	x1 = 0.6637	x1 = 0.7551	x1 = 0.8399	x1 = 0.9223	x1 = 0.9662
298.15 K	4.585	3.017	2.513	1.864	1.399	0.923	0.778	0.655	0.576	0.534
308.15 K	3.306	2.411	2.01	1.531	1.18	0.778	0.658	0.564	0.505	0.471

CCCCn1cc[n+](C)c1.F[P-](F)(F)(F)(F)F + CS(C)=O
Settings	viscosity [mPa·s]
298.15 K, 101 kPa, x1 = 0.7812	117.5
